Assay results published in patent publication US10717733B2, “Haloallylamine indole and azaindole derivative inhibitors of lysyl oxidases and uses thereof” (PHARMAXIS LTD., priority 2016, dated 2020).
Structures can show the parent of a compound that is named as a salt.

What was measured:
[1] = target: human recombinant SSAO/VAP-1 (Homo sapiens (Human), UniProt Q16853); test: Inhibition of human recombinant SSAO/VAP-1 amine oxidase activity; assay type: biochemical; conditions: 30 min preincubation at 37° C., 600 μM benzylamine
Sequence of human recombinant SSAO/VAP-1 (Q16853 34-763): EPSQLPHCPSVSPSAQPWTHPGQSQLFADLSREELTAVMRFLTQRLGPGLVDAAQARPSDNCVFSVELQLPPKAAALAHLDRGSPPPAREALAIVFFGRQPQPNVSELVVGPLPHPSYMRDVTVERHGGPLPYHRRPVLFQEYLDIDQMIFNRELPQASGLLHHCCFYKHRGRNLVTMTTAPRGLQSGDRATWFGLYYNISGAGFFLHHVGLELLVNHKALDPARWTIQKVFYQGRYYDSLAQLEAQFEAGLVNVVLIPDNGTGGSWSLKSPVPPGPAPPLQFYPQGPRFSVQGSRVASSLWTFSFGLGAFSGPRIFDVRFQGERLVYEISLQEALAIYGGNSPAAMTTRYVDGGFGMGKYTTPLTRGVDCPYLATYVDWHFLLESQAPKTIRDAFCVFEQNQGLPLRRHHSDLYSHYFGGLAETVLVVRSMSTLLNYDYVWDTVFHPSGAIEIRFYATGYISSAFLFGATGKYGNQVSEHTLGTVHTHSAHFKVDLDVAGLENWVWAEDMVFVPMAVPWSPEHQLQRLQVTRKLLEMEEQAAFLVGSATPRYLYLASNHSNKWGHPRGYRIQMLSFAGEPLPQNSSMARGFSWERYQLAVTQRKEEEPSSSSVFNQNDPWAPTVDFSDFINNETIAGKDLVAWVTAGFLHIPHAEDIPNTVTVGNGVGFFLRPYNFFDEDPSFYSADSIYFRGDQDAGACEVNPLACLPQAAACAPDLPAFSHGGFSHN
Procedure, shortened: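 Purified SSAO/VAP-1 (residues 34-763, expressed in CHO Lec 8 cells; 0.25 μg/mL) preincubated 30 min at 37° C with compound in 0.1 M sodium phosphate pH 7.4. Reaction mix of 600 μM benzylamine, 120 μM Amplex Red and 1.5 U/mL HRP added; fluorescence (ex 565/em 590 nm) read every 2.5 min for 30 min; IC50 from kinetic slopes over 4-11 point curves.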

[2] = system: myocardial infarction induced fibrosis; test: Myocardial infarction induced fibrosis (carotic ligation) model; assay type: in vivo, mouse; conditions: mice, 0.1-100 mg/Kg once a day oral gavage, FIG. 5
Source text: Carotic ligation is a widely accepted experimental model to induce cardiac fibrosis and to determine the anti-fibrotic activity of therapeutic agents.
In mice, the chest is opened via a left thoracotomy. The left coronary artery is identified visually using a stereo microscope, and a 7-0 suture is placed around the artery 1-2 mm below the left auricle. Permanent occlusion of the left coronary artery resulted from its ligation with the suture. Myocardial ischemia was confirmed by pallor in heart color and ST-segment elevation. (see Parajuli et al. Phosphatase PTEN is critically involved in post-myocardial infarction remodeling through the Akt/interleukin-10 signaling pathway Basic Res Cardiol (2012) 107:248).
Mice were subjected to sham or carotic ligation surgery. At 24 hrs post-surgery, echocardiography was performed on the mice. Mice were treated with compound 25 0.1-100 mg/Kg once a day for 21 (7 days after carotic ligation) or 28 days or saline as vehicle controls by oral gavage. At the end of the experiment, echocardiography was repeated to assess left ventricular function and remodeling. Then mice were euthanized for heart collection. Each heart was photographed and fixed with 10% formalin. Hearts were sectioned for Masson's trichrome stain to measure fibrosis (See FIG. 5).

[3] = system: primary fibroblasts from confirmed cases of IPF; test: Collagen cross-link formation in in vitro fibroblastic foci model of IPF; assay type: cell-based, human; conditions: TGF-β1 stimulated foci, six weeks culture, FIGS. 7a and 7b
Source text: The lung tissue of patients with idiopathic pulmonary fibrosis (IPF) is characterised by dense collections of myofibroblasts and extracellular matrix (ECM) termed ‘fibroblastic foci’. Using a novel in vitro model of fibroblastic foci (Jones et al., AJRCCM 191; 2015:A4912) the formation of lysyl oxidase (LOX) mediated collagen cross-links and the effects of the nonselective LOX inhibitor β-aminopropionitrile (BAPN) as well lysyl oxidase like-2 (LOXL2)-selective inhibitors were investigated.
Cultures of primary fibroblasts were grown out from clinical diagnostic biopsies of fibrotic lung and stored in liquid nitrogen. […]
To quantify collagen cross-links (Robins Biochem Soc Trans 2007; 35(5): 849-852; Saito et al Anal. Biochem. 1997; 253: 26-32; Sims, Avery & Bailey Methods in Molecular Biology 2000; vol 139: 11-26), cultures were treated with potassium borohydride to stabilise the reducible immature cross-links, and hydrolysed in 6N HCl at 100° C. for 16 hr. Total collagen content was assessed by hydroxyproline assay. Immature cross-links were assessed by LC/MS/MS and mature pyridinoline cross-links by ELISA. Cross-link data is expressed as moles of cross-link per mole collagen.

[4] = system: Streptozotocin (STZ)-induced diabetic nephropathy; test: Streptozotocin induced diabetic nephropathy (kidney fibrosis) model; assay type: in vivo, mouse; conditions: diabetic eNOS knockout mice, 24 weeks, 0.1-100 mg/Kg
Method: Streptozotocin (STZ)-induced diabetic nephropathy is commonly used for creating rodent models of type 1 diabetes which develop renal injury, due to pancreatic cell damage with similarities to human diabetic nephropathy.
Diabetes is induced in eNOS knockout mice on C57BL/6 background by intraperitoneal STZ injection (55 mg/kg in 0.1 M citrate buffer) in mice of 6-9 weeks of age (see Huang C et al, Blockade of KCa3.1 ameliorates renal fibrosis through a TGF-bl/Smad pathway in diabetic mice. Diabetes, 2013 62(8):2923-2934).
Blood sugar level (BSL) is determined by tail vein blood. Mice with BSL>16 mmol/L two weeks post STZ injection are considered diabetic. Treatment with Compound 12 is carried out for 24 weeks from diagnosis of diabetes at a dose of 0.1-100 mg/Kg.

SMILES | IC50 [1] [µM] | fibrosis after carotic ligation (Masson's trichrome stain) [2] | collagen cross-link formation (immature and mature cross-links) [3] | kidney function by albumin/creatinine ratio quantification [4] | reduction of fibrosis by Masson's Trichrome staining (collagen expression and glomerular damage) ([4]; vs vehicle-treated group)
Cc1c(-c2cccc(S(=O)(=O)N(C)C)c2)c2ncccc2n1C/C(F)=C/CN [Compound 25, (Z)-3-(1-(4-amino-2-fluorobut-2-en-1-yl)-2-methyl-1H-pyrrolo[3,2-b]pyridin-3-yl)-N,N-dimethylbenzenesulfonamide Dihydrochloride] | > 3 | reduce fibrosis | – | – | –
Cc1ccc2c(n1)c(-c1cccc(S(C)(=O)=O)c1)c(C)n2C/C(F)=C/CN [Compound 112, (Z)-4-(2,5-dimethyl-3-(3-(methylsulfonyl)phenyl)-1H-pyrrolo[3,2-b]pyridin-1-yl)-3-fluorobut-2-en-1-amine Dihydrochloride] | > 3 | – | reduced cross-link formation in a concentration dependent manner | – | –
CCOC(=O)c1ccc2c(c1)c(-c1cccc(S(=O)(=O)N(C)C)c1)c(C)n2C/C(F)=C/CN [Compound 12, (Z)-ethyl 1-(4-amino-2-fluorobut-2-en-1-yl)-3-(3-(N,N-dimethylsulfamoyl)phenyl)-2-methyl-1H-indole-5-carboxylate] | > 3 | – | – | significant improvement | up to 50%
